We go through 9 compounds from ChEMBL document CHEMBL6121018, “Targeting JNK3 for Alzheimer's disease: Design and synthesis of novel inhibitors with aryl group diversity utilizing wide pocket” (Eur J Med Chem, 2025).

Data set [1] can be described thus: in vitro. The settings on record: PAMPA.
Description: Permeability coefficient of compound by PAMPA
In data set [2] the target is T1, Mitogen-activated protein kinase 10 (Homo sapiens, UniProt P53779). Put plainly: Inhibition of JNK3 (unknown origin) using ATF as substrate in presence of [gamma-33P]ATP incubated for 40 mins by scintillation counter analysis.
Data set [3] can be described thus: in vitro. The settings on record: Sprague-Dawley, rat, primary cortical neurons.
Description: Cytotoxicity against Sprague-Dawley rat Primary cortical neuron assessed as cell viability incubated for 24 hrs by MTT assay
The target in data set [4] is T1, Mitogen-activated protein kinase 10. Put plainly: Inhibition of JNK3 (unknown origin).
The test system of data set [5] is Cortical neurone. Put plainly: Neuroprotective activity against amyloid beta (1 to 42 residues)-induced Sprague-Dawley rat primary cortical neurons assessed as cell viability at 10 uM pretreated with compound for 90 mins followed by amyloid beta (1 to 42 residues) induction for 24 hrs and measured on day 5 by MTT assay (reference value: 100%). The following applies: 121.5 h, read-out: Activity.

Data set [6] deals with Cortical neurone. Put plainly: Neuroprotective activity against amyloid beta (1 to 42 residues)-induced Sprague-Dawley rat primary cortical neurons assessed as cell viability at 20 uM pretreated with compound for 90 mins followed by amyloid beta (1 to 42 residues) induction for 24 hrs and measured on day 5 by MTT assay (reference value: 100%). It is filed as functional. The following applies: 121.5 h, time 7290 min, read-out: Activity.

Data set [7] can be described thus: in vitro. The settings on record: human, liver microsomes.
Data set [8] can be described thus: in vitro. The settings on record: human, plasma.
Description: Stability in human plasma assessed as parent compound remaining at 30 mins
The nature of data set [9]: in vitro. The following applies: human, plasma. The source holds these as a separate data set.
Description: Stability in human plasma assessed as parent compound remaining at 60 mins
Data set [10] concerns the target Glycogen synthase kinase-3 beta (Homo sapiens, UniProt P49841). The data set is described as follows: Inhibition of GSK3beta (unknown origin) using 33P-ATP as substrate incubated for 2 hrs by P81 filter-binding method.
Data set [11] concerns the target Glycogen synthase kinase-3 alpha (Homo sapiens, UniProt P49840). Put plainly: Inhibition of GSK3alpha (unknown origin) using 33P-ATP as substrate incubated for 2 hrs by P81 filter-binding method.
Data set [12] concerns the target Mitogen-activated protein kinase 9 (Homo sapiens, UniProt P45984).
Description: Inhibition of JNK2 (unknown origin) using 33P-ATP as substrate incubated for 2 hrs by P81 filter-binding method
The target in data set [13] is Mitogen-activated protein kinase 8 (Homo sapiens, UniProt P45983).
Description: Inhibition of JNK1 (unknown origin) using 33P-ATP as substrate incubated for 2 hrs by P81 filter-binding method
For data set [14], the target named is Mitogen-activated protein kinase 14 (Homo sapiens, UniProt Q16539).
Sequence of Mitogen-activated protein kinase 14 (Q16539 whole entry): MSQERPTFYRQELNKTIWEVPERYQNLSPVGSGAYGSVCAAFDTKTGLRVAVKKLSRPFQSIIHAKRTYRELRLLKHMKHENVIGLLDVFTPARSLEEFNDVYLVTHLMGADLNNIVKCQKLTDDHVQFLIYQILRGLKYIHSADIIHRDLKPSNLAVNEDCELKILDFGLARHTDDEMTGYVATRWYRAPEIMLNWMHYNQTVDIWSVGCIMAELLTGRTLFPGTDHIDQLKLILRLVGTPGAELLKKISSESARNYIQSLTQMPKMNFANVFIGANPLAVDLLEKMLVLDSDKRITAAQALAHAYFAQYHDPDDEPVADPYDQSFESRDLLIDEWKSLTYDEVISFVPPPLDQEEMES
Description: Inhibition of p38alpha (unknown origin) using 33P-ATP as substrate incubated for 2 hrs by P81 filter-binding method

T1 sequence (P53779 whole entry): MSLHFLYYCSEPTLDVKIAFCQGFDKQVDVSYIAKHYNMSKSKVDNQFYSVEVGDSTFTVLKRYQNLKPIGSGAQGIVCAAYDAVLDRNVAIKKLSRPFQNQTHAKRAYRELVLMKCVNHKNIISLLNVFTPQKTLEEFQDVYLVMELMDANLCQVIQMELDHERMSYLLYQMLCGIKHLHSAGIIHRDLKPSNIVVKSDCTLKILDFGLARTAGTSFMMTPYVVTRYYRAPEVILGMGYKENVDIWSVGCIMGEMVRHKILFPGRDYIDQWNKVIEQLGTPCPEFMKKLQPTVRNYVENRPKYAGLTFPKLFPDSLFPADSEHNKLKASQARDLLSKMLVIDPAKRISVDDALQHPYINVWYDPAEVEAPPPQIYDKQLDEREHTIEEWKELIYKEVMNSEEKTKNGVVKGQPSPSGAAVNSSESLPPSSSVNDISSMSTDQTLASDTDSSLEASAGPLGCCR
Sequence of Glycogen synthase kinase-3 alpha (P49840 whole entry): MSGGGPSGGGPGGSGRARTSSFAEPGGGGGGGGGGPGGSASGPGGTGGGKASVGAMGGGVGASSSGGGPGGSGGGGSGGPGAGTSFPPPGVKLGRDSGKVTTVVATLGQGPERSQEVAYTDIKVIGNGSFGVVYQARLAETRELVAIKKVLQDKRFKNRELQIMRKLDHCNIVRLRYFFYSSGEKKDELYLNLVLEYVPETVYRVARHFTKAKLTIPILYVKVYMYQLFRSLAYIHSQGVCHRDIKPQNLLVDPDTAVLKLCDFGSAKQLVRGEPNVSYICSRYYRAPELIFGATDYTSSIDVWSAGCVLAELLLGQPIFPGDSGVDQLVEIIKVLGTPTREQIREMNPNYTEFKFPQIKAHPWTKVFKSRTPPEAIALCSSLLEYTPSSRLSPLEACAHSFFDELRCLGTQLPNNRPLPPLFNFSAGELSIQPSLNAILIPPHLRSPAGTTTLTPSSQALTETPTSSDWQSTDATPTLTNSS
Sequence of Mitogen-activated protein kinase 8 (P45983 whole entry): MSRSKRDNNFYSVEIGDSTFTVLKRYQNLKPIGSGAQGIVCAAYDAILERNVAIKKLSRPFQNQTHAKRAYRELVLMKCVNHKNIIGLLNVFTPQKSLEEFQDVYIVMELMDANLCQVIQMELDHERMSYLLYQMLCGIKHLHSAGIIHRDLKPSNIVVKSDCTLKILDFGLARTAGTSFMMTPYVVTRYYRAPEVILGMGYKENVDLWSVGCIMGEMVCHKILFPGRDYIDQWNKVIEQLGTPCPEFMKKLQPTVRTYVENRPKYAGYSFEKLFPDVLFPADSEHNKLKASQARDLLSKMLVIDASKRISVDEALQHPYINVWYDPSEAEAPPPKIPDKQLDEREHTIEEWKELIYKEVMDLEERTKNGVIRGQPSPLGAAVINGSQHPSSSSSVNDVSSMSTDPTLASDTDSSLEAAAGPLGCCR
Sequence of Glycogen synthase kinase-3 beta (P49841 whole entry): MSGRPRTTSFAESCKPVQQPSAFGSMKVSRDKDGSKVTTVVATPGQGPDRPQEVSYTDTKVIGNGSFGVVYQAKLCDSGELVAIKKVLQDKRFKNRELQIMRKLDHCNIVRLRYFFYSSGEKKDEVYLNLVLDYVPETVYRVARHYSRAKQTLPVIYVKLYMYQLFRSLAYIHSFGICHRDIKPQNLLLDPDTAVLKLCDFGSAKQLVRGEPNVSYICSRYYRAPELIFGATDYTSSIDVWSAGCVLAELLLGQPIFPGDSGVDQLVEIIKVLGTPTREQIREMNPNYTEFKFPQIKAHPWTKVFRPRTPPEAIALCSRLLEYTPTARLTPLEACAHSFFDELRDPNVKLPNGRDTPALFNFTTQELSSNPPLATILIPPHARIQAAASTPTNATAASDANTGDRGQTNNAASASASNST
Sequence of Mitogen-activated protein kinase 9 (P45984 whole entry): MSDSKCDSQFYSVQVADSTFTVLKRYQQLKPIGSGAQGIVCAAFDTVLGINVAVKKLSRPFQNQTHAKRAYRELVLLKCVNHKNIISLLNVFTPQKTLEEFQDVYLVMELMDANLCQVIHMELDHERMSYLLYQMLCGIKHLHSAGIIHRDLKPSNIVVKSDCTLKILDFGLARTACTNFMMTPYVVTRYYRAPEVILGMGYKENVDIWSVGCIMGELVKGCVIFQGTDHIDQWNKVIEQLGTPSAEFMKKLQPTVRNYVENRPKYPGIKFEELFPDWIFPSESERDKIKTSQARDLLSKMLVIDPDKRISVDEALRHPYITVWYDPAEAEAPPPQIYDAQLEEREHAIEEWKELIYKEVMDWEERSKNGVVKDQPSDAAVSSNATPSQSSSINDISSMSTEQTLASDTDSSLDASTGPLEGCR

Consider `CC(=O)[C@H]1CC[C@H]2[C@@H]3CCC4=CC(=O)CC[C@]4(C)[C@H]3CC[C@]12C` [PROGESTERONE], for which the Papp in data set [1] is 40.7 ×10⁻⁶ cm/s.
As for `CN(C)C1CCN(c2ccc(Nc3nccc(-n4cc(/C=C/c5ccccc5)c(C(N)=O)n4)n3)cc2)CC1`, the IC50 in [2] amounted to 96 nM. Also, in data set [3], the viability at 24 h was found to be 102%.
For `CN1CCN(c2ccc(Nc3nccc(-n4cc(/C=C/c5ccccc5)c(C(N)=O)n4)n3)cc2)CC1`, in data set [2], the IC50 is 276 nM. Besides, the viability at 24 h in data set [3] was found to be 104%.
In data set [4], `N#CCc1cc(-c2ccc(Cl)c(Cl)c2)n(-c2ccnc(N[C@H]3CCN(C(=O)C4CC4)C3)n2)n1` registered an IC50 of 227 nM. Also, the viability at 10 µM in data set [5] was 14%. The viability at 24 h in data set [3] was found to be 103%.
As for `Oc1ccc(/C=C/c2cc(O)cc(O)c2)cc1` [RESVERATROL], the viability at 20 µM in [6] was determined as 85%.
In turn, `COc1ccc(CCN(C)CCCC(C#N)(c2ccc(OC)c(OC)c2)C(C)C)cc1OC` (stereo not drawn) came in with an amount remaining at 1 h in data set [7] of 20.3%.
On to `CCOC(=O)[C@H](CCc1ccccc1)N[C@@H](C)C(=O)N1CCC[C@H]1C(=O)O`, for which the amount remaining at 0.5 h in data set [8] was 95%. In data set [9], the share remaining at 1 h came to 90%.
In the case of `NC(=O)c1nn(-c2ccnc(N[C@H]3CCCN(C(=O)C4CC4)C3)n2)cc1/C=C/c1ccccc1`, the IC50 in data set [10] is 14 nM; in data set [11] it was 35 nM; in [12], 450 nM; in data set [13] it was 80 nM; in data set [14] it was “Not_active”.
Take `CCOC(=O)c1nn(-c2ccnc(Nc3ccc(N4CCC(N(C)C)CC4)cc3)n2)cc1/C=C/c1cccc(Br)c1`: the IC50 in [2] is 8330 nM.
